Data as given in US9624247B2, “Pyrazolo-pyrrolidin-4-one derivatives as bet inhibitors and their use in the treatment of disease” (NOVARTIS AG, priority 2013, dated 2017).

These molecules were tested against nuclear BRD4-NUT foci in HCC2494 NUT midline carcinoma cells (Homo sapiens (Human), UniProt O60885+Q86Y26) (assay: Nut-foci formation assay (HCS)). Conditions: 24 hours, NUT-foci immunofluorescence.
Assay type: cell-based
Description: HCC2494 NUT midline carcinoma cells (expressing BRD4-NUT-fusion) were obtained from the University of Texas Southwestern and cultured in RPMI-1640 medium containing 10% Foetal Calf Serum at 37° C. in a humidified 5% CO2 incubator.
Compound-mediated inhibition of BRD4 activity was monitored by quantification of the number and intensity of nuclear BRD4-NUT foci using automated immunofluorescence microscopy. Briefly, 5000 cells in 20 μl fresh medium were seeded into Poly-D-Lysine-precoated 384-well plates and incubated overnight at 37° C. and 5% CO2, followed by addition of 5 μl medium containing compound dilutions at 5-fold their final intended concentration. Dose-response effects were assessed by 3-fold serial dilutions of the test compound, starting at 10 μM. Following incubation of the cells for 24 hours at 37° C. and 5% CO2, the cells were fixed by incubation with 3.7% formaldehyde for 10 min, followed by immunofluorescence staining using rabbit anti-NUT (Cell Signaling Technologies, Cat#3625) as primary, and AlexaFluor488-labeled goat anti-rabbit (Invitrogen, Cat#A11008) as secondary antibody (latter complemented with 1 μg/mL Hoechst33342 as DNA dye). Assay plates were imaged using the appropriate filter sets on the Cellomics VTi automated fluorescence microscopy platform (ThermoFisher Scientific) and the population average of the number of NUT-foci per nucleus is quantified using the Cellomics Spot Detection BioApplication image analysis algorithm (ThermoFisher Scientific). The effect of a particular test compound concentration on NUT-foci number and intensity is expressed as percentage of the value obtained for cells treated with vehicle only (DMSO, 0.1% final concentration), which was set as 100. Compound concentrations leading to half-maximal (IC50) inhibition of the aforementioned readout parameters were determined using standard four parameter curve fitting.
Cc1cc(N2C(=O)c3c(C4CC4)nn(C)c3C2c2ccc(Cl)cc2)cn2c(C(F)F)nnc12 (racemic) [Example 3, 6-(4-chlorophenyl)-3-cyclopropyl-5-(3-(difluoromethyl)-8-methyl-[1,2,4]triazolo[4,3-a]pyridin-6-yl)-1-methyl-5,6-dihydropyrrolo[3,4-c]pyrazol-4(1H)-one] showed an IC50 of 8.27 nM.
COCCn1nc(C2CC2)c2c1C(c1ccc(Cl)cc1)N(c1cc(C)c3nnc(C)n3c1)C2=O (racemic) [Example 4, 6-(4-chlorophenyl)-3-cyclopropyl-5-(3,8-dimethyl-[1,2,4]triazolo[4,3-a]pyridin-6-yl)-1-(2-methoxyethyl)-5,6-dihydropyrrolo[3,4-c]pyrazol-4(1H)-one] was tested, and the IC50 was 9.04 nM.
Molecule COc1cc(N2C(=O)c3c(C4CC4)nn(C)c3C2c2ccc(Cl)cc2)cn2c(C)nnc12 (racemic) [Example 5, 6-(4-chlorophenyl)-3-cyclopropyl-5-(8-methoxy-3-methyl-[1,2,4]triazolo[4,3-a]pyridin-6-yl)-1-methyl-5,6-dihydropyrrolo[3,4-c]pyrazol-4(1H)-one] has an IC50 of 36 nM.
Molecule Cc1cc(N2C(=O)c3c(C4CC4)nn(C)c3C2c2ccc(Cl)cc2)cn2c(CF)nnc12 (racemic) [Example 16, 6-(4-chlorophenyl)-3-cyclopropyl-5-(3-(fluoromethyl)-8-methyl-[1,2,4]triazolo[4,3-a]-pyridin-6-yl)-1-methyl-5,6-dihydropyrrolo[3,4-c]pyrazol-4(1H)-one] has an IC50 of 12.1 nM.
With Cc1cc(N2C(=O)c3c(C4CC4)nn(C)c3C2c2ccc(Cl)cc2)cn2c(C)nnc12 (centres unmarked) [Example 1, 6-(4-chlorophenyl)-3-cyclopropyl-5-(3,8-dimethyl-[1,2,4]triazolo[4,3-a]pyridin-6-yl)-1-methyl-5,6-dihydropyrrolo[3,4-c]pyrazol-4(1H)-one] the IC50 was 16.2 nM.
Cc1cc(N2C(=O)c3c(C4CC4)nn(C)c3[C@H]2c2ccc(Cl)cc2)cn2c(C)nnc12 [Example 2, (R)-6-(4-chlorophenyl)-3-cyclopropyl-5-(3,8-dimethyl-[1,2,4]triazolo[4,3-a]pyridin-6-yl)-1-methyl-5,6-dihydropyrrolo[3,4-c]pyrazol-4(1H)-one] gave an IC50 of 4.71 nM.
COc1cc(N2C(=O)c3c(C4CC4)nn(C)c3C2c2ccc(Cl)cc2)cc2c1nnn2C (centres unmarked) [Example 6] gave an IC50 of 54.8 nM.
Cc1cc(N2C(=O)c3c(C4CC4)nn(C)c3[C@H]2c2ccc(Cl)cc2)cn2c(C(F)F)nnc12 [Example 7, (R)-6-(4-chlorophenyl)-3-cyclopropyl-5-(3-(difluoromethyl)-8-methyl-[1,2,4]triazolo-[4,3-a]pyridin-6-yl)-1-methyl-5,6-dihydropyrrolo[3,4-c]pyrazol-4(1H)-one] was tested, and the IC50 was 2.14 nM.
For COCCn1nc(C2CC2)c2c1C(c1ccc(Cl)cc1)N(c1cc(C)c3nnc(CF)n3c1)C2=O (centres unmarked) [Example 18, 6-(4-chlorophenyl)-3-cyclopropyl-5-(3-(fluoromethyl)-8-methyl-[1,2,4]triazolo[4,3-a]-pyridin-6-yl)-1-(2-methoxyethyl)-5,6-dihydropyrrolo[3,4-c]pyrazol-4(1H)-one], the IC50 was 3.65 nM.
For Cc1nnc2c(NC(=O)OC(C)(C)C)cc(N3C(=O)c4c(C5CC5)nn(C)c4C3c3ccc(Cl)cc3)cn12 (centres unmarked) [Example 27, tert-butyl (6-(6-(4-chlorophenyl)-3-cyclopropyl-1-methyl-4-oxopyrrolo[3,4-c]pyrazol-5(1H,4H,6H)-yl)-3-methyl-[1,2,4]triazolo[4,3-a]pyridin-8-yl)carbamate], the IC50 was 22.4 nM.
For CCOC(=O)Nc1cc(N2C(=O)c3c(C4CC4)nn(C)c3C2c2ccc(Cl)cc2)cn2c(C)nnc12 (centres unmarked) [Example 29, ethyl (6-(6-(4-chlorophenyl)-3-cyclopropyl-1-methyl-4-oxopyrrolo[3,4-c]pyrazol-5-(1H,4H,6H)-yl)-3-methyl-[1,2,4]triazolo[4,3-a]pyridin-8-yl)carbamate], the IC50 was 2.2 nM.
